Experimental data taken from patent publication US11426494B2, “Stents having biodegradable layers” (MT Acquisition Holdings LLC, priority 2007, dated 2022).

Columns and labels:
[1] = rapamycin degradation in DES coating (peak area ratio, control vs Micell processed); type: physicochemical; settings: Micell processed materials vs control samples, FIG. 6
[2] = drug elution from DES coating; type: physicochemical; settings: heparin+taxol in DES coating, FIG. 9, preliminary data

With `CO[C@H]1C[C@@H]2CC[C@@H](C)[C@@](O)(O2)C(=O)C(=O)N2CCCC[C@H]2C(=O)O[C@H]([C@H](C)C[C@@H]2CC[C@@H](O)[C@H](OC)C2)CC(=O)[C@H](C)/C=C(\C)[C@@H](O)[C@@H](OC)C(=O)[C@H](C)C[C@H](C)/C=C/C=C/C=C/1C` [rapamycin] the “rate of rapamycin degradation (peak area ratio)” value [1] was “no difference in the rate of rapamycin degradation”.
With `CC(=O)O[C@H]1C(=O)[C@@]2(C)[C@H]([C@H](OC(=O)c3ccccc3)[C@]3(O)C[C@H](OC(=O)[C@H](O)[C@@H](NC(=O)c4ccccc4)c4ccccc4)C(C)=C1C3(C)C)[C@]1(OC(C)=O)CO[C@@H]1C[C@@H]2O` [taxol] the “primary drug (taxol) elution profile on addition of a 2nd drug (heparin)” value [2] was “not affecting primary drug (taxol) elution profile”.
Compound heparin has a heparin elution continuing [2] greater than 15 days.
